# Measured values published in paper PMC10826043 (BMC Complementary Medicine and Therapies, 2024).
# Like-named read-outs stand apart in the source and are kept apart here.
# What was measured:
# α-amylase [1] = conditions: validation set, cited from earlier work
# [2] = molecular target: T1, α-amylase from porcine pancreas (Sus scrofa, UniProt P00690); assay: In vitro pancreatic α-amylase inhibitory assay (starch/DNS, 540 nm); format: biochemical; conditions: 1% starch, pH 6.9, 25 °C, read-out: IC50 (α-amylase inhibition)
# T1 construct: α-amylase from porcine pancreas (A3176); purchased Sigma-Aldrich (Germany) A3176; host or cells: porcine pancreas (tissue-derived)
# T1 sequence (P00690 16-511): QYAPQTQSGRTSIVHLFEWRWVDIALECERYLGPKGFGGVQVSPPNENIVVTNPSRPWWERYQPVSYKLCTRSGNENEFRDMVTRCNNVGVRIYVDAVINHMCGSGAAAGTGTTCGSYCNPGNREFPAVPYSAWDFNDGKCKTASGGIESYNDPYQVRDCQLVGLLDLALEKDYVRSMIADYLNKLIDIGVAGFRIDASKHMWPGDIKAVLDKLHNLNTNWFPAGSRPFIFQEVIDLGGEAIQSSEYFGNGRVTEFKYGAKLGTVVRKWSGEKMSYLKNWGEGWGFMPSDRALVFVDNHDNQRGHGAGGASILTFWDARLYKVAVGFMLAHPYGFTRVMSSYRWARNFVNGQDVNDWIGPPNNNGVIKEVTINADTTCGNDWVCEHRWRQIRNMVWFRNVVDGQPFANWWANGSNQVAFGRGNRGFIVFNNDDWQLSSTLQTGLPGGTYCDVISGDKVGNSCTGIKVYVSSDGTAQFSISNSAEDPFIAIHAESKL
# Experimental: Analytical purity grade solvents were used throughout the study.
# With reference to the established technique, the assay was carried out quantitatively with minor adjustments. Initially, 500µL test solution was preincubated with 500µL α-amylase solution (0.55 unit/mL) at 25°C for 10 min. The α-amylase was prepared in a buffer solution (0.02M sodium phosphate pH 6.9 with 0.006M NaCl). Afterwards, 500µL of 1% w/v starch in buffer solution was mixed in and left to incubate for 10 min at 25°C. To bring the reaction to a halt, 1mL dinitrosalicylic acid (DNS) was introduced and the mixture was placed in a boiling water bath for 3.5 min. After cooling to room temperature, the mixture was then diluted using 10mL distilled water and absorbance was measured using a Laxco spectrophotometer (α1502, Laxco Inc., USA) at λ 540nm. Blanks used throughout the experiment were made by adding pure buffer instead of α-amylase solution. […] To calculate the pancreatic α-amylase inhibitory activity, the following equation was used: %Inhibtion=100×1-Abs540nmExtract-Abs540nmPositivecontrol/Abs540nmNegativecontrol-Abs540nmPositivecontrol
# α-amylase [3] = molecular target: T2, α-amylase (Sus scrofa, UniProt P00690); assay: Combination analysis of α-amylase inhibition (CompuSyn: median-effect, isobologram, CI, DRI); format: biochemical, porcine; conditions: for Dose (mM) Kaempferol: kaempferol alone
# T2 construct: α-amylase from porcine pancreas (A3176); purchased Sigma-Aldrich (Germany) A3176; host or cells: porcine pancreas (tissue-derived)
# T2 sequence (P00690 16-511): T1 sequence (P00690 16-511)
# Source text: These include: median effect, isobolographic, combination index, and lastly, dose reduction index analyses.
# Data input included each inhibitors’ independent activity and the summation of both inhibitors’ activity when used in conjunction of each other. […] 2.6.
# This method of analysis relies on its namesake equation, the median-effect equation which stems from the general mass-action law principle. Each inhibitor’s sigmoidal dose–effect plot was individually generated in addition to their respective combination. Thereafter, the plot was transfigured linearly into median-effect plots. The median-effect equation is described as: fa/fu=D/Dm^m
# D represents the dose of the inhibitor, Dm is the inhibitor’s dose causing a decrease of 50% in the enzyme’s activity, fa is the fraction affected by dose D , fu is the unaffected fraction ( fu = 1 – fa ), and m the curve’s sigmoidicity coefficient. Through logarithmic transformation, the equation becomes: Logfa/fu=mlogD-mlog(Dm)
# This, in turn, results in the median-effect plot. A plot where y=log(fa/fu) against x=log(D) with m being the slope and log(Dm) , the x-intercept. Dm and m are obtained from the median-effect plot. To determine the data’s conformity to the general mass-action principle, the linear correlation coefficient (r) of the plot is assessed.
# Using each inhibitor’s individual effect, this method of analysis is employed to assess the combined effect of two inhibitors. A graph, wherein the x- and y- axes represent the doses of inhibitors A and B, respectively, is plotted. The doses, a and b denote the dose of inhibitor A and B, respectively, resulting in the same efficacy when used individually. (e.g.: At x % inhibition, a = CA,x and b = CB,x ). To assess the combined effects of inhibitors A and B, an additive line must first be established. This is accomplished by connecting two points of the same efficacy (e.g.: connecting a with b). Based on the respective position of the combination data points relative to the additive line, the nature of the interaction can be determined; synergism, addition, or antagonism are indicated by data points lying below, on, or above the additive line, respectively.
# The combination index (CI) quantitatively evaluates the type of interaction between two inhibitors at a series of inhibition levels. CI is calculated by means of the following equation [38]: CI=CA,x/ICx,A+CB,x/ICx,B Where ICx,A and ICx,B are the doses of inhibitors A and B, respectively, required to produce x % inhibition when each inhibitor is used individually. Whereas CA,x and CB,x are the doses of inhibitors A and B, respectively, required to produce x % inhibition when a binary mixture is used. Based on the resulting CI, the nature of the inhibitors’ interaction can be concluded. A CI lower than, equal to, or greater than 1 is indicative of synergism, addition, or antagonism, respectively. Alternatively, the interaction present between the two inhibitors can be deduced via the combination index ( fa -CI) plot.
# The dose reduction index (DRI) was calculated for synergistic binary combinations to measure the fold decrease in the dose of each inhibitor at a given effect level, relative to the dose of each inhibitor when used solitarily resulting in the same effect. DRI can be calculated as follows: DRI=IC50[solitaryinhibitor]/IC50[inhibitorincombination]
# DRI values > 1 are favored, reflecting a decrease in dose while maintaining or enhancing the inhibitor’s efficacy.
smiles,measurement,setting,value
"O=c1c(O)c(-c2ccc(O)cc2)oc2cc(O)ccc12 [3,7,4'-Trihydroxyflavone]",IC50,α-amylase [1]; supplement ref [8],59 ± 4 µM
COc1cc(/C=C/C(=O)O)cc(OC)c1O [Sinapic acid],IC50,α-amylase [1]; supplement ref [13],37000 µM
O=c1c(O)c(-c2ccc(O)cc2)oc2cc(O)cc(O)c12 [Kaempferol],IC50,[2],4840 ± 140 µM
same,IC50,α-amylase [1]; supplement ref [3],16.5 ± 1.84 µM
same,IC50,α-amylase [3],4840 µM
same,m (slope of median-effect plot),α-amylase [3],1.18
same,r (correlation coefficient of median-effect plot),α-amylase [3],1.00
same,DRI Kaempferol,α-amylase [3]; fold dose reduction in combination with acarbose at 26% inhibition,2.66
same,DRI Kaempferol,α-amylase [3]; fold dose reduction in combination with acarbose at 86% inhibition,2.27
same,DRI Kaempferol,α-amylase [3]; fold dose reduction in combination with acarbose at 91% inhibition,1.11
same,Dose (mM) Kaempferol,α-amylase [3]; dose needed for 26% inhibition,1.99 mM
same,Dose (mM) Kaempferol,α-amylase [3]; dose needed for 86% inhibition,22.6 mM
same,Dose (mM) Kaempferol,α-amylase [3]; dose needed for 91% inhibition,34.5 mM
"O=c1cc(-c2ccc(O)c(O)c2)oc2cccc(O)c12 [5,3',4'-Trihydroxyflavone]",IC50,α-amylase [1]; supplement ref [8],148 ± 5 µM
"COc1cc(OC)c2c(c1C)O[C@H](c1ccc(O)cc1)CC2 [(2S)-4′-hydroxy-5,7-dimethoxy-8-methylflavan]",IC50,α-amylase [1]; supplement ref [11],6030 ± 270 µM
O=C(O)C1OC(Oc2cc(O)c3c(=O)cc(-c4ccc(O)cc4)oc3c2)C(O)C(O)C1O [Apigenin-7-O-β-D-glucopyranuronide],IC50,α-amylase [1]; supplement ref [3],10.4 ± 2.51 µM
OCC1=C[C@@H](O)[C@@H]2C=CO[C@@H](O[C@@H]3O[C@H](CO)[C@@H](O)[C@H](O)[C@H]3O)[C@H]12 [Aucubin],IC50,[2],2370 µM
"COc1c(-c2ccc(O)c(O)c2)oc2cc(O)cc(O)c2c1=O [Quercetin-3-methylether, quercetin-3-methyl ether]",IC50,[2],6370 ± 110 µM
same,IC50,α-amylase [1]; supplement ref [3],13.6 ± 2.04 µM
"O=c1cc(-c2ccc(O)c(O)c2)oc2cc(O)c(Cl)c(O)c12 [6-Chloro-3',4',5,7-tetrahydroxyflavone]",IC50,α-amylase [1]; supplement ref [8],44 ± 3 µM
"O=C(/C=C/c1ccc(O)c(O)c1)O[C@@H]1C[C@](O)(C(=O)O)C[C@@H](O)[C@H]1O [Chlorogenic Acid, chlorogenic acid]",IC50,[2],7390 ± 220 µM
same,IC50,α-amylase [1]; supplement ref [9],1050 ± 18 µM
O=C(O)c1cc(O)c(O)c(O)c1 [Gallic acid],IC50,α-amylase [1]; supplement ref [7],27.8 ± 2.06 µM
COc1cc(-c2oc3cc(O)cc(O)c3c(=O)c2O)ccc1O [Isorhamnetin],IC50,α-amylase [1]; supplement ref [12],24900 ± 427 µM
"Cc1c(O)cc2c(c1O)C(=O)C(Cc1ccc(O)cc1)CO2 (stereo not drawn) [5,7-dihydroxy-6-methyl-3-(4′-hydroxybenzyl) chroman-4-one]",IC50,α-amylase [1]; supplement ref [11],5990 ± 60 µM
"COc1cc(O)c2c(=O)c(O)c(-c3ccc(O)c(O)c3)oc2c1 [Quercetin-7-methylether, quercetin-7-methyl ether]",IC50,[2],5010 ± 70 µM
O=c1cc(-c2ccccc2)oc2cc(O)c(O)c(O)c12 [Baicalein],IC50,α-amylase [1]; supplement ref [12],11200 ± 200 µM
Oc1cc(O)c2c(c1)O[C@H](c1ccc(O)c(O)c1)[C@H](O)C2 [L-epicatechin],IC50,α-amylase [1]; supplement ref [3],31.5 ± 2.21 µM
"O=c1cc(-c2ccc(O)c(O)c2)oc2cc(O)ccc12 [7, 3', 4'-trihydroxyflavone]",IC50,α-amylase [1]; supplement ref [3],16.3 ± 0.52 µM
O=c1cc(-c2ccc(O)c(O)c2)oc2cc(O)cc(O)c12 [Luteolin],IC50,[2],6320 ± 30 µM
same,IC50,α-amylase [1]; supplement ref [3],14.6 ± 0.74 µM
O=C(O)c1ccc(O)c(O)c1 [Protocatechuic acid],IC50,α-amylase [1]; supplement ref [10],2650 ± 160 µM
O=C(O)/C=C/c1ccc(O)c(O)c1 [Caffeic acid],IC50,α-amylase [1]; supplement ref [13],19400 µM
